According to patent publication US20070259948A1, “Compounds with antifungal properties and process thereof” (priority 2006, published 2007):
Converted amounts (≈) assume the structure as drawn.

Experiments:
Assay in all cases: Antifungal susceptibility testing (minimum inhibitory concentration), soyabean casein digest broth
Assay type in all cases: cell-based
[1] = test system: A. niger; conditions: Aspergillus niger; end points after 48 hours, visually / spectrophotometer; NI till x = no inhibition up to x; read-out: Activity against organisms In μg/ml, A. niger (minimum inhibitory concentration)
Procedure: (§1) In vitro evaluation of antifungal activity can be performed by determining the minimum inhibitory concentration. Anti-fungal susceptibility testing of these anti-fungal compounds was done by conventional method using soyabean casein digest broth. Known anti-fungal agents like Fluconazole and amphotericin-B were used as positive control. End points were determined after 48 hours visually and by using Spectrophotometer wherever necessary. Different dilutions were tried and the set of experiments.

[2] = test system: C. albicans; conditions: Candida albicans; end points after 48 hours, visually / spectrophotometer; NI till x = no inhibition up to x; read-out: Activity against organisms In μg/ml, C. albicans (minimum inhibitory concentration)
Procedure: as §1

[3] = test system: F. proliferatum; conditions: Fusarium proliferatum; end points after 48 hours, visually / spectrophotometer; NI till x = no inhibition up to x; read-out: Activity against organisms In μg/ml, F. proliferatum (minimum inhibitory concentration)
Procedure: as §1

O=C1OC(COC(=O)c2cccs2)C=C1c1cccc(Br)c1 (stereo not drawn) [1DC, 4-(3-bromophenyl)-5-oxo-2,5-dihydrofuran-2-ylmethyl thiophene-2-carboxylate]
MIC [1]: 8 µg/mL (≈ 21.1 µM)
MIC [2]: 2 µg/mL (≈ 5.27 µM)
MIC [3]: 2 µg/mL (≈ 5.27 µM)
